The numbers were not newly measured in patent publication US6699847B2, “Antiparasitic formulation” (Pfizer Inc., priority 1998, dated 2004), which cites them from elsewhere.

Structures are written as SMILES.

On to `CO[C@H]1C[C@H](O[C@H]2[C@H](C)O[C@@H](O[C@@H]3/C(C)=C/C[C@@H]4C[C@@H](C[C@]5(C=C[C@H](C)[C@@H](C6CCCCC6)O5)O4)OC(=O)[C@@H]4C=C(C)[C@@H](O)[C@H]5OC/C(=C\C=C\[C@@H]3C)[C@]54O)C[C@@H]2OC)O[C@@H](C)[C@@H]1O` [Doramectin], for which the solubility in water entry is listed as “sparingly soluble”.
